This note sets out measurements from US9765049B2, “N-cycloalkyl-N-[(fusedphenyl)methylene]-(thio)carboxamide derivatives” (BAYER CROPSCIENCE AG, priority 2013, dated 2017).

Data set [1] is described as follows: log P by HPLC on reversed-phase column (C 18), EEC Directive 79/831 Annex V.A8. The following applies: for logP: Table 1, 40° C. The format is physicochemical. The method, then: In table 1, the log P values were determined in accordance with EEC Directive 79/831 Annex V.A8 by HPLC (High Performance Liquid Chromatography) on a reversed-phase column (C 18), using the method described below: Temperature: 40° C.; Mobile phases: 0.1% aqueous formic acid and acetonitrile; linear gradient from 10% acetonitrile to 90% acetonitrile. Calibration was carried out using unbranched alkan-2-ones (comprising 3 to 16 carbon atoms) with known log P values (determination of the log P values by the retention times using linear interpolation between two successive alkanones). lambda-max-values were determined using UV-spectra from 200 nm to 400 nm and the peak values of the chromatographic signals.

A further data set relates to Pyrenophora teres. Briefly: In vivo preventive test on Pyrenophora teres (net blotch on barley). The following applies: 500 ppm, barley plants, preventive spray, evaluated 14 days after inoculation. The method, then:
(§1) Example D: In Vivo Preventive Test on Pyrenophora teres (Net Blotch on Barley) [table] The active ingredients are made soluble and homogenized in a mixture of Dimethyl sulfoxide/Acetone/Tween®80 and then diluted in water to the desired concentration. The young plants of barley are treated by spraying the active ingredient prepared as described above. Control plants are treated only with an aqueous solution of Acetone/Dimethyl sulfoxide/Tween® 80. After 24 hours, the plants are contaminated by spraying the leaves with an aqueous suspension of Pyrenophora teres spores.

For a further data set, the system named is Septoria tritici. Kind of data set: In vivo preventive test on Septoria tritici (wheat). As to conditions: 500 ppm, wheat plants, preventive spray, evaluated 24 days after inoculation. The method, then:
as §1, with “E:” for “D:”, “Septoria tritici (Wheat)” for “Pyrenophora teres (Net Blotch on Barley)”, “wheat” for “barley”, “Septoria tritici” for “Pyrenophora teres”, “spores. The contaminated wheat plants are incubated for 72 hours at 18° C. and at 100% relative humidity and then for 21 days at 20° C. and at 90% relative humidity.” for “spores.”

The subject of the next data set is Sphaerotheca fuliginea. Kind of data set: In vivo preventive test on Sphaerotheca fuliginea (powdery mildew on cucurbits). The following applies: 500 ppm, gherkin plants, preventive spray, evaluated 15 days after inoculation. As to the method:
(§2) Example F: In Vivo Preventive Test on Sphaerotheca fuliginea (Powdery Mildew on Cucurbits) [table] The active ingredients are made soluble and homogenized in a mixture of Dimethyl sulfoxide/Acetone/Tween®80 and then diluted in water to the desired concentration. The young plants of gherkin are treated by spraying the active ingredient prepared as described above. Control plants are treated only with an aqueous solution of Acetone/Dimethyl sulfoxide/Tween® 80. After 24 hours, the plants are contaminated by spraying the leaves with an aqueous suspension of Sphaerotheca fuliginea spores.

The subject of data set [2] is Fusarium nivale (var. majus). Briefly: Efficacy against Fusarium nivale (var. majus) (wheat), curative test. Format: in vivo. As to conditions: evaluated 5 days after inoculation. The method, then:
Example I: Efficacy Against Fusarium nivale (Var. Majus) (Wheat) [table] To produce a suitable preparation of active compound, 1 part by weight of active compound or active compound combination is mixed with the stated amounts of solvent and emulsifier, and the concentrate is diluted with water to the desired concentration. […] After the spray coating has dried on, the plants remain in a greenhouse under translucent incubation cloches at a temperature of approximately 10° C. and a relative atmospheric humidity of approximately 100%.

The next data set deals with Botrytis cinerea. Briefly: In vivo preventive test Botrytis cinerea (grey mould). As to conditions: gherkin plants. The method, then: as §2, with “B:” for “F:”, “Botrytis cinerea (Grey Mould)” for “on Sphaerotheca fuliginea (Powdery Mildew on Cucurbits)”, “Botrytis cinerea” for “Sphaerotheca fuliginea”, “spores. The contaminated gherkin plants are incubated for 4 to 5 days at 17° C. and at 90% relative humidity.” for “spores.”

For another data set, the system named is Puccinia recondita. Briefly: In vivo preventive test on Puccinia recondita (brown rust on wheat). As to conditions: 500 ppm, wheat plants, preventive spray, evaluated 11 days after inoculation. The method, then:
Example C: In Vivo Preventive Test on Puccinia recondita (Brown Rust on Wheat) [table] The active ingredients are made soluble and homogenized in a mixture of Dimethyl sulfoxide/Acetone/Tween®80 and then diluted in water to the desired concentration. The young plants of wheat are treated by spraying the active ingredient prepared as described above. Control plants are treated only with an aqueous solution of Acetone/Dimethyl sulfoxide/Tween® 80. After 24 hours, the plants are contaminated by spraying the leaves with an aqueous suspension of Puccinia recondita spores.

Setting [3] is: HPLC, 0.1% aqueous formic acid and acetonitrile.
[4] abbreviates: reversed-phase HPLC column (C 18), Table 2 (amines of formula IIa), HPLC, 0.1% aqueous formic acid and acetonitrile, read-out: logP.
Where [5] appears, read: reversed-phase HPLC column (C 18), Table 3 (aldehydes of formula IV), HPLC, 0.1% aqueous formic acid and acetonitrile, read-out: logP.
The mark [6] stands for this setting: Table B, 500 ppm, preventive spray, evaluated 4 to 5 days after inoculation.

Molecules are shown by their SMILES. Read-outs that look alike come from different tables or passages of the source.

As for `Cn1nc(C(F)F)c(C(=O)N(Cc2cccc3c2C2CCC3C2=C(Cl)Cl)C2CC2)c1Cl` (stereo not shown) [I.06], in data set [1] (setting [3]), the logP (usually the decadic logarithm of the partition coefficient of the neutral form, usually between octanol and water) came to 4.66. Besides, the values for the Efficacy in the data set on Pyrenophora teres, in the data set with Septoria tritici and in the data set with Sphaerotheca fuliginea were 71%, 71% and 95%, respectively.

With `c1cc(CNC2CC2)c2c(c1)C1CCC2O1` (stereo not shown) [IIa.4, N-(1,2,3,4-tetrahydro-1,4-epoxynaphthalen-5-ylmethyl)cyclopropanamine], the chromatographic logP in data set [1] (setting [4]) is 0.45.

Regarding `O=Cc1cccc2c1C1C=CC2C1` (stereo not shown) [IV.2, 1,4-dihydro-1,4-methanonaphthalene-5-carbaldehyde], the chromatographic logP in data set [1] (setting [5]) worked out at 2.73.

`C1=CC2CC1c1cccc(CNC3CC3)c12` (stereo not shown) [IIa.2, N-(1,4-dihydro-1,4-methanonaphthalen-5-ylmethyl)cyclopropanamine]: the chromatographic logP in data set [1] (setting [4]) is 1.13.

Compound `Cn1cc(C(=O)N(Cc2cccc3c2C2C=CC3C2)C2CC2)c(C(F)F)n1` (stereo not shown) [I.03] had a lipophilicity (logP) in data set [1] (setting [3]) of 3.19. In addition, the Efficacy in the data set with Pyrenophora teres turned out to be 88%; in the data set on Sphaerotheca fuliginea it was 98%.

Take `O=Cc1cccc2c1C1C=CC2O1` (stereo not shown) [IV.5, 1,4-dihydro-1,4-epoxynaphthalene-5-carbaldehyde]: in data set [1] (setting [5]), the chromatographic logP stood at 1.5.

Regarding `O=Cc1cccc2c1C1CCC2O1` (stereo not shown) [IV.4, 1,2,3,4-tetrahydro-1,4-epoxynaphthalene-5-carbaldehyde], the chromatographic logP in data set [1] (setting [5]) is 1.66.

In data set [1] (setting [3]), `O=C(c1ccsc1Br)N(Cc1cccc2c1C1C=CC2O1)C1CC1` (stereo not shown) [I.21] returned a logP of 2.96.

For the compound `Cc1nn(C)c(F)c1C(=O)N(C1CC1)C(C)c1cccc2c1CCCC2` (stereo not shown) [CMP4, N-cyclopropyl-5-fluoro-1,3-dimethyl-N-[1-(5,6,7,8-tetrahydronaphthalen-1-yl)ethyl]-1H-pyrazole-4-carboxamide], the Efficacy in data set [2] (dose 250 ppm) is recorded as 29%; in data set [2] (dose 500 ppm), 57%.

Consider `O=Cc1cccc2c1C1CCC2C1` (stereo not shown) [IV.1, 1,2,3,4-tetrahydro-1,4-methanonaphthalene-5-carbaldehyde], for which the chromatographic logP in data set [1] (setting [5]) came out at 3.13.

In turn, `Cn1nc(C(F)F)c(C(=S)N(Cc2cccc3c2C2C=CC3O2)C2CC2)c1Cl` (stereo not shown) [I.20] gave a log partition coefficient (logP) in data set [1] (setting [3]) of 3.17.

`Cn1nc(C(F)F)c(C(=O)N(Cc2cccc3c2C2CCC3O2)C2CC2)c1F` (stereo not shown) [I.12]: the Efficacy with Botrytis cinerea (setting [6]) was 99%; in the data set on Septoria tritici it was 100%; in the data set with Sphaerotheca fuliginea, 100%; in the data set on Puccinia recondita, 89%. Besides, in data set [1] (setting [3]), the lipophilicity (logP) is given as 2.55.

For the compound `Cn1cc(C(=S)N(Cc2cccc3c2C2CCC3C2=C(Cl)Cl)C2CC2)c(C(F)F)n1` (stereo not shown) [I.10], the Efficacy was found to be 100% in the data set with Botrytis cinerea (setting [6]), 100% in the data set with Septoria tritici, 100% with Sphaerotheca fuliginea and 88% in the data set with Puccinia recondita. The same compound showed a logP in data set [1] (setting [3]) of 4.83.

As to `Cn1nc(C(F)F)c(C(=O)N(Cc2cccc3ccccc23)C2CC2)c1F` [CMP1, N-cyclopropyl-3-(difluoromethyl)-5-fluoro-1-methyl-N-(1-naphthylmethyl)-1H-pyrazole-4-carboxamide, reference compound], the Efficacy in the data set with Botrytis cinerea (Table B2, dose 100 ppm) worked out at 10%; with Botrytis cinerea (Table B2, dose 500 ppm), 70%.

With `Cn1cc(C(=O)N(Cc2cccc3c2C2C=CC3O2)C2CC2)c(C(F)F)n1` (stereo not shown) [I.15], in data set [1] (setting [3]), the log partition coefficient (logP) stood at 2.05. In the data set with Sphaerotheca fuliginea, this compound yielded an Efficacy of 72%.

In data set [1] (setting [3]), `Cc1cc(C(=O)N(Cc2cccc3c2C2C=CC3O2)C2CC2)c(C)o1` (stereo not shown) [I.16] registered a logP of 2.82. In the data set with Septoria tritici, this compound gave an Efficacy of 81%.

`Cc1cc(C(=O)N(Cc2cccc3c2C2CCC3O2)C2CC2)c(C)o1` (stereo not shown) [I.22] had a logP in data set [1] (setting [3]) of 3.04.

On to `CC1CCc2cccc(C(C)N(C(=O)c3c(C(F)F)nn(C)c3F)C3CC3)c2C1` (stereo not shown) [50 from WO-2010/130767, N-cyclopropyl-3-(difluoromethyl)-5-fluoro-1-methyl-N-[1-(7-methyl-5,6,7,8-tetrahydronaphthalen-1-yl)ethyl]-1H-pyrazole-4-carboxamide], for which the Efficacy in data set [2] (dose 250 ppm) and in data set [2] (dose 500 ppm) was 67% each time.

`Cn1cc(C(=O)N(Cc2cccc3c2C2C=CC3O2)C2CC2)c(C(F)(F)F)c1` (stereo not shown) [I.17]: in data set [1] (setting [3]), the logP was determined as 2.70.

`Cn1nc(C(F)F)c(C(=O)N(Cc2cccc3c2C2C=CC3O2)C2CC2)c1F` (stereo not shown) [I.14] came in with a logP in data set [1] (setting [3]) of 2.31. The Efficacy with Pyrenophora teres was 75%; with Septoria tritici, 98%; in the data set with Sphaerotheca fuliginea, 94%.

Regarding `Cn1cc(C(=O)N(Cc2cccc3c2CCCC3)C2CC2)c(C(F)F)n1` [CMP3, N-cyclopropyl-3-(difluoromethyl)-1-methyl-N-(5,6,7,8-tetrahydronaphthalen-1-ylmethyl)-1H-pyrazole-4-carboxamide, reference compound], the Efficacy is 0% in the data set on Botrytis cinerea (Table B2, dose 100 ppm) and 0% in the data set with Botrytis cinerea (Table B2, dose 500 ppm).

In data set [1], `O=Cc1cccc2c1C1CCC2C1=C(Cl)Cl` (stereo not shown) [IV.3, 9-(dichloromethylene)-1,2,3,4-tetrahydro-1,4-methanonaphthalene-5-carbaldehyde] registered a chromatographic logP of 4.09.

For the compound `Cn1nc(C(F)F)c(C(=S)N(Cc2cccc3c2C2C=CC3O2)C2CC2)c1F` (stereo not shown) [I.19], in data set [1] (setting [3]), the log partition coefficient (logP) came to 3.04.

On to `Cn1nc(C(F)F)c(C(=O)N(Cc2cccc3c2C2C=CC3O2)C2CC2)c1Cl` (stereo not shown) [I.13], for which, in data set [1] (setting [3]), the logP is 2.42.

In the case of `ClC(Cl)=C1C2CCC1c1c(CNC3CC3)cccc12` (stereo not shown) [IIa.3, N-{[9-(dichloromethylene)-1,2,3,4-tetrahydro-1,4-methanonaphthalen-5-yl]methyl}-cyclopropanamine], the chromatographic logP in data set [1] was 1.95.

In data set [1] (setting [3]), `Cc1nc(C(F)F)c(C(=O)N(Cc2cccc3c2C2C=CC3O2)C2CC2)s1` (stereo not shown) [I.18] yielded a log partition coefficient (logP) of 2.51.

For the compound `Cn1nc(C(F)F)c(C(=O)N(Cc2cccc3c2C2C=CC3C2)C2CC2)c1Cl` (stereo not shown) [I.05], in data set [1] (setting [3]), the logP worked out at 3.70. For the same compound, the figures for the Efficacy in the data set with Septoria tritici, in the data set on Sphaerotheca fuliginea and in the data set on Puccinia recondita were 81%, 72% and 94%, respectively.

On to `Cc1nn(C)c(F)c1C(=O)N(C1CC1)C(C)c1cccc2c1CCC(C)(C)C2` (stereo not shown) [CMP5, N-cyclopropyl-N-[1-(6,6-dimethyl-5,6,7,8-tetrahydronaphthalen-1-yl)ethyl]-5-fluoro-1,3-dimethyl-1H-pyrazole-4-carboxamide], for which the Efficacy in data set [2] (dose 250 ppm) stood at 44%; in data set [2] (dose 500 ppm), 56%.

Turning to `c1cc(CNC2CC2)c2c(c1)C1CCC2C1` (stereo not shown) [IIa.1, N-(1,2,3,4-tetrahydro-1,4-methanonaphthalen-5-ylmethyl)cyclopropanamine], in data set [1] (setting [4]), the chromatographic logP was 1.31.

On to `Cc1nn(C)c(F)c1C(=O)N(Cc1cccc2c1CCCC2)C1CC1` [CMP2, N-cyclopropyl-5-fluoro-1,3-dimethyl-N-(5,6,7,8-tetrahydronaphthalen-1-ylmethyl)-1H-pyrazole-4-carboxamide, reference compound], for which the Efficacy came to 0% in the data set on Botrytis cinerea (Table B2, dose 100 ppm) and 35% in the data set with Botrytis cinerea (Table B2, dose 500 ppm).

Regarding `C1=CC2OC1c1cccc(CNC3CC3)c12` (stereo not shown) [IIa.5, N-(1,4-dihydro-1,4-epoxynaphthalen-5-ylmethyl)cyclopropanamine], the chromatographic logP in data set [1] (setting [4]) was 0.13.
